Target: T1, p300 (1-111) (Homo sapiens, UniProt Q09472)
T1 construct: 6xHis (C); HSV tag (C); expressed in transfected cells
Test: Pull-down of p300 deletion constructs on COMPOUND 2 coated beads, competition with excess COMPOUND 1
Assay type: binding
Conditions: p300 (1-111), (1-211), (1-351) in SW480 lysates, 150 μM COMPOUND 1
Description: FIG. 2. The first 111 amino acids of CBP, but not p300, specifically bind COMPOUND 1. • A. Schematic representation of the wild-type and deletion constructs for CBP. • B. CBP (1-111) contains the minimal binding domain of COMPOUND 1. Expression levels of CBP deletion constructs in SW480 cells are shown (upper panel). 10 μg of total protein was subjected to gel electrophoresis and subjected to immunoblotting using anti-His antibodies. Whole cell lysates of SW480 cells expressing CBP deletion constructs were bound to streptavidin-agarose beads coated with 100 μM of COMPOUND 2. The bound fractions were subjected to gel electrophoresis and immunoblotting using anti-His antibodies (lower panel). Arrows point to constructs which remained bound to COMPOUND 2 coated beads. • C. […] CBP deletion constructs, CBP(1-111),CBP (1-211), and CBP (1-351) and p300 deletion constructs, p300 (1-111), p300 (1-211), and p300 (1-351) were transfected into SW480 cells. Whole cell lysates were incubated with streptavidin-agarose beads or streptavidin-agarose beads coated with 100 μM COMPOUND 2 (lower panel). The binding of CBP constructs (1-111,1-211, and 1-351) and p300 constructs (1-111,1-211, and 1-351) to the beads was challenged with excess COMPOUND 1 (150 μM). • D. CBP (1-111) binds to COMPOUND 1 in a phosphorylation independent manner. […]

T1 sequence (Q09472 1-117): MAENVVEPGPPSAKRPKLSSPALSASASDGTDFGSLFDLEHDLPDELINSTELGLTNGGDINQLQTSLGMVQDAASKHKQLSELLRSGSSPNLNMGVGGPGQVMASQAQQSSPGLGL

O=C1C(Cc2ccc(O)cc2)N2C(=O)CCN(C(=O)NCc3ccccc3)C2CN1Cc1cccc2ccccc12 (stereo not shown) [COMPOUND 1]
Competition of p300 fragment binding to COMPOUND 2 beads by excess COMPOUND 1: failed to have any effect
